Source: patent US4223039A, “Therapeutically useful N-phenylaniline derivatives” (priority 1978, dated 1980)
Where a name gives a salt, the structure may show the parent alone.

How the values were obtained:
[1] = Acute toxicity in mice after oral administration; conditions: mouse, in vivo, suspended in 10% gum arabic, survivors checked at 15 days
Description: The compounds have been administered at increasing doses (in geometric progression) to groups of five .female. SWISS, EOPS, NMRI/Han mice originating from the breeding of EVIC CEBA and of mean weight 25 g.
For oral administration, they are suspended in a 10% gum arabic solution.
The LD 50s are calculated by the method of Behrens (B) and Karber (C), (Arch. Exp. Path. Pharmakol. 1935, 177, 379-388).
The number of animals surviving in the different groups is finally checked 15 days after administration of the compounds.

[2] = system: painful syndrome provoked in mice by phenylbenzoquinone; experiment: animal or person; format: in vivo; conditions: for Therapeutic Index LD 50/ED 50 / therapeutic index (in words): mice; for Therapeutic Index LD 50/ED 50: LD 50 (oral)/ED 50 (phenylbenzoquinone test); for therapeutic index (in words): LD 50/ED 50
Description: There is used the phenylbenzoquinone test according to a technique adapted from that of Siegmund (E), Proc. Soc. Exp. Biol. Med. 1957, 95, No. 4, 729-731.
It is attempted to antagonise, by previous administration (30 minutes before) of the test compounds, the painful syndrome provoked in mice (groups of 10 animals) by interperitoneal injection of phenylbenzoquinone and characterised by intermittent contractions of the abdomen, periodic torsions of the trunk and extension of the rear paws. The number of symtoms is counted for 20 minutes after administration of the phenylbenzoquinone to the control and treated groups and the percentage protection relative to the control group calculated.
For the most interesting compounds, studied at several doses chosen in geometric progression of ratio 2, the effective doses 50% (ED 50) which reduce by 50% the effects provoked by phenylbenzoquinone are determined. These ED 50s are sorted according to their limits of confidence calculated for a probability p=0.05 according to the method of Litchfield (J. T.) and Wilcoxon (F. A.), J. Pharmacol. Exp. Ther. 1949, 96, 99-113.
Calculation of the therapeutic index (LD 50/ED 50) enables appreciation of the interest of the compounds.

[3] = Solubility in distilled water; format: physicochemical
[4] = Mus musculus, read-out: Percentage Protection

Compound: CC(Nc1cccc(C(=O)c2cccs2)c1)C(=O)O (centres unmarked) [LJ 859]
- LD50 at 360 h [1]: 2500 mg/kg
- inhibition in vivo at 125 mg/kg [2, 4]: 77%

Compound: C[C@@H](C(=O)O)N(C(=O)c1ccc(Cl)cc1)c1cccc(C(=O)c2ccccc2)c1 [LJ 863, N-(3-Benzoylphenyl)-N-(4-chlorobenzoyl)-alanine]
- inhibition in vivo at 320 mg/kg [2, 4]: 45%

Compound: CC(Nc1ccc(C(=O)c2ccccc2)cc1)C(=O)O (centres unmarked) [LJ 854]
- LD50 at 360 h [1]: 1880 mg/kg
- ED50 ([2]; Mus musculus): 32 mg/kg
- inhibition in vivo at 5.8 mg/kg [2, 4]: 6%
- inhibition in vivo at 11.75 mg/kg [2, 4]: 11%
- inhibition in vivo at 23.5 mg/kg [2, 4]: 25%
- inhibition in vivo at 47 mg/kg [2, 4]: 84%
- inhibition in vivo at 93.75 mg/kg [2, 4]: 90%
- Therapeutic Index LD 50/ED 50 [2]: 58

Compound: O=C(O)CNc1cccc(C(=O)c2ccccc2)c1 [LJ 850]
- LD50 at 360 h [1]: 675 mg/kg
- inhibition in vivo at 33.75 mg/kg [2, 4]: 28%

Compound: Cc1ccc(C(=O)c2ccccc2)cc1NCC(=O)O [LJ 871]
- ED50 ([2]; Mus musculus): 120 mg/kg
- inhibition in vivo at 20 mg/kg [2, 4]: 3%
- inhibition in vivo at 40 mg/kg [2, 4]: 22%
- inhibition in vivo at 80 mg/kg [2, 4]: 34%
- inhibition in vivo at 160 mg/kg [2, 4]: 59%
- inhibition in vivo at 320 mg/kg [2, 4]: 60%

Compound: CN(CC(=O)O)c1cccc(C(=O)c2ccccc2)c1 [LJ 862, N-(3-Benzoylphenyl)-N-methyl-glycine]
- ED50 ([2]; Mus musculus): 85 mg/kg
- inhibition in vivo at 20 mg/kg [2, 4]: 6%
- inhibition in vivo at 40 mg/kg [2, 4]: 24%
- inhibition in vivo at 80 mg/kg [2, 4]: 49%
- inhibition in vivo at 160 mg/kg [2, 4]: 78%
- inhibition in vivo at 320 mg/kg [2, 4]: 89%

Compound: Cc1ccc(C(=O)c2cccc(NC(C)C(=O)O)c2)cc1 (centres unmarked) [LJ 867]
- LD50 at 360 h [1]: 2620 mg/kg
- ED50 ([2]; Mus musculus): 32 mg/kg
- inhibition in vivo at 8.2 mg/kg [2, 4]: 6%
- inhibition in vivo at 16.4 mg/kg [2, 4]: 32%
- inhibition in vivo at 32.75 mg/kg [2, 4]: 52%
- inhibition in vivo at 65.5 mg/kg [2, 4]: 70%
- inhibition in vivo at 131 mg/kg [2, 4]: 92%
- inhibition in vivo at 262 mg/kg [2, 4]: 97%
- Therapeutic Index LD 50/ED 50 [2]: 82
- therapeutic index (in words) [2]: very favourable therapeutic index

Compound: CC(Nc1cccc(C(=O)c2ccc(Cl)cc2)c1)C(=O)O (centres unmarked) [LJ 845]
- LD50 at 360 h [1]: 1750 mg/kg
- inhibition in vivo at 87.5 mg/kg [2, 4]: 75%

Compound: C[C@H](Nc1cccc(C(=O)c2ccccc2)c1)C(=O)O [LJ 874, N-(3-Benzoylphenyl)-alanine]
- LD50 at 360 h [1]: 2500 mg/kg
- ED50 ([2]; Mus musculus): 35 mg/kg
- inhibition in vivo at 7.5 mg/kg [2, 4]: 3%
- inhibition in vivo at 15 mg/kg [2, 4]: 20%
- inhibition in vivo at 30 mg/kg [2, 4]: 48%
- inhibition in vivo at 60 mg/kg [2, 4]: 61%
- inhibition in vivo at 120 mg/kg [2, 4]: 92%
- Therapeutic Index LD 50/ED 50 [2]: 71
- therapeutic index (in words) [2]: very favourable therapeutic index

Compound: O=C(c1ccccc1)c1cccc(NC(C(=O)O)c2ccccc2)c1 (centres unmarked) [LJ 864]
- inhibition in vivo at 40 mg/kg [2, 4]: 7%
- inhibition in vivo at 80 mg/kg [2, 4]: 22%
- inhibition in vivo at 160 mg/kg [2, 4]: 31%
- inhibition in vivo at 320 mg/kg [2, 4]: 59%

Compound: Cc1c(NC(C)C(=O)O)cccc1C(=O)c1ccc(Cl)cc1 (centres unmarked) [LJ 857]
- LD50 at 360 h [1]: 1250 mg/kg
- inhibition in vivo at 62.5 mg/kg [2, 4]: 64%

Compound: Cc1c(NCC(=O)O)cccc1C(=O)c1ccccc1 [LJ 861]
- LD50 at 360 h [1]: 1300 mg/kg
- ED50 ([2]; Mus musculus): 65 mg/kg
- inhibition in vivo at 20 mg/kg [2, 4]: 24%
- inhibition in vivo at 40 mg/kg [2, 4]: 36%
- inhibition in vivo at 80 mg/kg [2, 4]: 52%
- inhibition in vivo at 160 mg/kg [2, 4]: 90%
- inhibition in vivo at 320 mg/kg [2, 4]: 96%
- Therapeutic Index LD 50/ED 50 [2]: 20

Compound: Cc1ccc(C(=O)c2ccccc2)cc1NC(C)C(=O)O (centres unmarked) [LJ 869]
- LD50 at 360 h [1]: 1300 mg/kg
- ED50 ([2]; Mus musculus): 28 mg/kg
- inhibition in vivo at 8.1 mg/kg [2, 4]: 12%
- inhibition in vivo at 16.25 mg/kg [2, 4]: 36%
- inhibition in vivo at 32.5 mg/kg [2, 4]: 51%
- inhibition in vivo at 65 mg/kg [2, 4]: 82%
- inhibition in vivo at 130 mg/kg [2, 4]: 96%
- Therapeutic Index LD 50/ED 50 [2]: 46

Compound: CC(Nc1cccc(C(=O)c2ccccc2)c1)C(=O)O (centres unmarked) [LJ 843, The lysine salt of N-(3-benzoylphenyl)alanine monohydrate]
- LD50 at 360 h [1]: 3750 mg/kg
- solubility in distilled water [3]: very soluble in distilled water
- ED50 ([2]; Mus musculus): 25 mg/kg
- inhibition in vivo at 11.75 mg/kg [2, 4]: 30%
- inhibition in vivo at 23.5 mg/kg [2, 4]: 38%
- inhibition in vivo at 47 mg/kg [2, 4]: 66%
- inhibition in vivo at 93.75 mg/kg [2, 4]: 84%
- inhibition in vivo at 187.5 mg/kg [2, 4]: 91%
- Therapeutic Index LD 50/ED 50 [2]: 150
- therapeutic index (in words) [2]: very favourable therapeutic index

Compound: CC(Nc1ccccc1C(=O)c1ccccc1)C(=O)O (centres unmarked) [LJ 855]
- LD50 at 360 h [1]: 1000 mg/kg
- ED50 ([2]; Mus musculus): 16 mg/kg
- inhibition in vivo at 3.1 mg/kg [2, 4]: 10%
- inhibition in vivo at 6.25 mg/kg [2, 4]: 14%
- inhibition in vivo at 12.5 mg/kg [2, 4]: 37%
- inhibition in vivo at 25 mg/kg [2, 4]: 73%
- inhibition in vivo at 50 mg/kg [2, 4]: 92%
- Therapeutic Index LD 50/ED 50 [2]: 62

Compound: Cc1c(NCC(=O)O)cccc1C(=O)c1ccc(Cl)cc1 [LJ 846, N-[3-(4-Chlorobenzoyl)-2-methyl-phenyl]glycine]
- LD50 at 360 h [1]: 1600 mg/kg
- ED50 ([2]; Mus musculus): 18 mg/kg
- inhibition in vivo at 5 mg/kg [2, 4]: 6%
- inhibition in vivo at 10 mg/kg [2, 4]: 40%
- inhibition in vivo at 20 mg/kg [2, 4]: 48%
- inhibition in vivo at 40 mg/kg [2, 4]: 75%
- inhibition in vivo at 80 mg/kg [2, 4]: 90%
- Therapeutic Index LD 50/ED 50 [2]: 89
- therapeutic index (in words) [2]: very favourable therapeutic index

Compound: CC(Nc1ccc(Cl)c(C(=O)c2ccccc2)c1)C(=O)O (centres unmarked) [LJ 868]
- LD50 at 360 h [1]: 1800 mg/kg
- ED50 ([2]; Mus musculus): > 180 mg/kg
- inhibition in vivo at 180 mg/kg [2, 4]: 32%
- Therapeutic Index LD 50/ED 50 [2]: < 10

Compound: CC(=O)Oc1ccccc1C(=O)O [Aspirin, reference compound]
- LD50 at 360 h [1]: 1500 mg/kg
- ED50 ([2]; Mus musculus): 60 mg/kg
- inhibition in vivo at 9.4 mg/kg [2, 4]: 4%
- inhibition in vivo at 18.75 mg/kg [2, 4]: 20%
- inhibition in vivo at 37.5 mg/kg [2, 4]: 31%
- inhibition in vivo at 75 mg/kg [2, 4]: 56%
- inhibition in vivo at 150 mg/kg [2, 4]: 82%
- inhibition in vivo at 300 mg/kg [2, 4]: 95%
- Therapeutic Index LD 50/ED 50 [2]: 25

Compound: CC(Nc1ccc(C(=O)c2cccs2)cc1)C(=O)O (centres unmarked) [LJ 858]
- LD50 at 360 h [1]: 1880 mg/kg
- inhibition in vivo at 93.75 mg/kg [2, 4]: 78%
